Measured values as given in patent US20170290821A1 (priority 2014, published 2017).
Structures can show the parent of a compound that is named as a salt. Where two headings read alike, the source gives them in different places.

Test system: influenza virus A/WSN RG#1-1 strains
Assay: microbe, parasite or virus in culture
Assay type: cell-based
Details: for IC50: unidentified influenza virus, WSN, read-out: IC50 (50% virus replication inhibitory concentration)

| Compound | IC50 (A549, 48 h) | IC50 (HEK293, 48 h) | IC50 (50% virus replication inhibitory concentration) | other results |
| --- | --- | --- | --- | --- |
| N#C/C(=C\c1ccc(O)c(O)c1)C(=O)NCc1ccccc1 [Compound J4, (E)-N-benzyl-2-cyano-3-(3,4-dihydroxyphenyl)acrylamide] | 31.6 µM |  |  |  |
| O=C(Nc1c[nH]nc1-c1nc2cc(CN3CCOCC3)ccc2[nH]1)NC1CC1 [Compound J7, 1-cyclopropyl-3-(3-(5-(morpholinomethyl)-1H-benzo[d]imidazol-2-yl)-1H-pyrazol-4-yl) urea] | 3.16 µM |  |  |  |
| N#CCNC(=O)c1ccc(-c2ccnc(Nc3ccc(N4CCOCC4)cc3)n2)cc1 [Compound J8, N-(cyanomethyl)-4-(2-(4-morpholinophenylamino)pyrimidin-4-yl)benzamide] |  | 31.6 µM |  |  |
| CN1CCN(c2cccc(Nc3nc4c(-c5ccc(S(C)(=O)=O)cc5)cccn4n3)c2)CC1 [Compound J11] |  |  | 3.50 log10, nM |  |
| Fc1cc(-c2cccc3ncc(-c4cnn(C5CCNCC5)c4)nc23)cc(F)c1CN1CCOCC1 [Compound J13, 8-(3,5-difluoro-4-(morpholinomethyl)phenyl)-2-(1-(piperidin-4-yl)-1H-pyrazol-4-yl)qui noxaline] |  |  | 3.17 log10, nM |  |
| CC(C)N(CCC(=O)c1ccc2ccccc2c1)Cc1ccccc1 [Compound J15, 1-propanone, 3-[(1-methylethyl)(phenylmethyl)amino]-1-(2-naphthalenyl)-, hydrochloride (1:1)] |  | 0.316 µM |  |  |
| O=C(Nc1nc2cccc(-c3ccc(CN4CCS(=O)(=O)CC4)cc3)n2n1)C1CC1 [Compound J19, N-[5-[4-[(1,1-dioxido-4-thiomorpholinyl)methyl]phenyl][1,2,4]triazolo[1,5-a]pyridin-2-yl]cyclopropanccarboxamidc] | 31.6 µM | 31.6 µM |  | IC50 (MDCK, 48 h): 31.6 µM |
| COc1cc2ncnc(Nc3ccc(O)cc3)c2cc1OC [Compound J20, 4-[(6,7-dimethoxy-4-quinazolinyl)amino]-phenol] |  | 31.6 µM |  |  |
| Cl.Cl.Fc1cc(-c2cccc3ncc(-c4cnn(C5CCNCC5)c4)nc23)cc(F)c1CN1CCOCC1 [Compound J21, 4-[[2,6-difluoro-4-[3-(1-piperidin-4-ylpyrazol-4-yl)quinoxalin-5-yl]phenyl]methyl]morpholine; dihydrochloride] |  |  | 3.50 log10, nM |  |
| CN1C/C=C/CCOc2cccc(c2)-c2ccnc(n2)Nc2cccc(c2)C1 [Compound J23, 20-oxa-5,7,14,27-tetraazatetracyclo[19.3.1.12,6.18, 12]heptacosa-1(25),2,4,6(27),8,10,12(26),16,21,23-decane,14-methyl-] | 0.0316 µM | 0.0316 µM |  | IC50 (MDCK, 48 h): 0.0316 µM |
| CCC[C@H](NC(=O)/C(C#N)=C/c1cccc(Br)n1)c1ccccc1 [Compound J25, (2E)-3-(6-bromo-2-pyridinyl)-2-cyano-N-[1S-phenylbutyl]-2-propenamide] |  |  | 2.50 log10, nM |  |
